Data published in the supplement of paper PMC10307832.

The cell lines below were run with C1CCC(CC1)N(CCNCCC2=C3C(=C(C=C2)O)NC(=O)CO3)C(=O)CCNCCC4=CC(=C(C=C4)Cl)Cl [AZ505] + O=C(CCCCCCC(=O)Nc1ccccc1)NO [Vorinostat] (partner 1 µM) (assay: relative viability (nuclei count vs DMSO), 5 days (fraction); higher = more cells survive). Details: first compound 0.08 µM.
In short: (§1)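 One day after seeding in 1536-well plates, lung cancer cell lines were dosed by pin tool. Dosing was either single-drug or a fixed anchor-drug dose plus five library-drug doses (not always all listed) in √10 steps. After 5 days, nuclei were stained in one fix-and-stain step and counted on 4× images, and relative viability is the nuclei count of treated wells over that of vehicle wells, given as the median of duplicate plates.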
For NCI-H2342, the relative viability was 0.799. With NCI-H727 the relative viability was 1.11. For NCI-H1650, the relative viability was 0.54. Cell Line NCI-H1993 has a relative viability of 0.689. With SK-LU-1 the relative viability was 0.488. NCI-H838 was tested, and the relative viability was 0.674. LCLC-103H showed a relative viability of 0.682. With NCI-H520 the relative viability was 0.594. NCI-H2126 gave a relative viability of 0.724. Cell Line EMC-BAC-2 has a relative viability of 0.486. NCI-H2085 showed a relative viability of 0.732. For HCC-366, the relative viability was 0.356. NCI-H1666 showed a relative viability of 1.01. Work on NCI-H596 yielded a relative viability of 0.549. LK-2 was tested, and the relative viability was 0.295. In the case of NCI-H2087, the relative viability was 0.596. In the case of SK-MES-1, the relative viability was 0.889. In the case of COR-L23, the relative viability was 0.415. COR-L 105 showed a relative viability of 0.778. Cell Line IA-LM has a relative viability of 0.878. LOU-NH91 gave a relative viability of 0.837. Work on ChaGo-K-1 yielded a relative viability of 0.695. For NCI-H2170, the relative viability was 0.659. In the case of NCI-H2405, the relative viability was 0.811. Work on HOP-62 yielded a relative viability of 0.607. HCC-44 showed a relative viability of 1.09. In the case of NCI-H522, the relative viability was 0.688. LU99A showed a relative viability of 0.545. BEN was tested, and the relative viability was 0.494.

Same assay, conditions: first compound 0.253 µM
With NCI-H2342 the relative viability was 0.844. Cell Line NCI-H727 has a relative viability of 1.07. NCI-H1650 gave a relative viability of 0.602. NCI-H1993 showed a relative viability of 0.741. In the case of SK-LU-1, the relative viability was 0.463. NCI-H838 showed a relative viability of 0.73. With LCLC-103H the relative viability was 0.689. With NCI-H520 the relative viability was 0.847. Cell Line NCI-H2126 has a relative viability of 0.682. Work on NCI-H2085 yielded a relative viability of 0.721. In the case of HCC-366, the relative viability was 0.393. NCI-H1666 was tested, and the relative viability was 1.01. LK-2 showed a relative viability of 0.318. NCI-H2087 showed a relative viability of 0.903. NCI-H1648 showed a relative viability of 0.43. In the case of SK-MES-1, the relative viability was 1. H3255 gave a relative viability of 0.799. With COR-L23 the relative viability was 0.312. Cell Line COR-L 105 has a relative viability of 0.87. With LOU-NH91 the relative viability was 0.855. ChaGo-K-1 gave a relative viability of 0.758. NCI-H2170 showed a relative viability of 0.851. Cell Line HOP-62 has a relative viability of 0.605. HCC-44 was tested, and the relative viability was 1.09. NCI-H522 gave a relative viability of 0.909. In the case of LU99A, the relative viability was 0.533. For BEN, the relative viability was 0.603.

Same assay, conditions: first compound 0.8 µM
Cell Line NCI-H2342 has a relative viability of 0.84. NCI-H727 was tested, and the relative viability was 1.2. With NCI-H1650 the relative viability was 0.605. Cell Line NCI-H1993 has a relative viability of 0.994. Cell Line SK-LU-1 has a relative viability of 0.513. Cell Line NCI-H838 has a relative viability of 0.67. LCLC-103H gave a relative viability of 0.694. Work on NCI-H520 yielded a relative viability of 0.648. Work on NCI-H2126 yielded a relative viability of 0.751. With EMC-BAC-2 the relative viability was 0.512. For NCI-H2085, the relative viability was 0.675. Cell Line HCC-366 has a relative viability of 0.344. With NCI-H1666 the relative viability was 0.962. Work on NCI-H596 yielded a relative viability of 0.577. In the case of LK-2, the relative viability was 0.33. For NCI-H2087, the relative viability was 0.592. NCI-H1648 was tested, and the relative viability was 0.418. For SK-MES-1, the relative viability was 0.969. H3255 showed a relative viability of 0.796. With COR-L23 the relative viability was 0.364. With COR-L 105 the relative viability was 0.86. In the case of IA-LM, the relative viability was 0.933. Work on LOU-NH91 yielded a relative viability of 0.91. With ChaGo-K-1 the relative viability was 0.816. NCI-H2170 showed a relative viability of 0.749. Cell Line NCI-H2405 has a relative viability of 0.823. HOP-62 gave a relative viability of 0.658. HCC-44 showed a relative viability of 1.06. Cell Line NCI-H522 has a relative viability of 0.927. With LU99A the relative viability was 0.506. BEN was tested, and the relative viability was 0.54. With HCC-78 the relative viability was 0.444.

Same assay, conditions: first compound 2.53 µM
NCI-H2342 showed a relative viability of 0.866. NCI-H727 showed a relative viability of 1.11. For NCI-H1650, the relative viability was 0.725. NCI-H1993 gave a relative viability of 0.884. For SK-LU-1, the relative viability was 0.548. With NCI-H838 the relative viability was 0.737. Work on LCLC-103H yielded a relative viability of 0.695. For NCI-H520, the relative viability was 0.731. NCI-H2126 gave a relative viability of 0.696. For EMC-BAC-2, the relative viability was 0.547. In the case of NCI-H2085, the relative viability was 0.802. HCC-366 was tested, and the relative viability was 0.354. NCI-H1666 gave a relative viability of 1.03. NCI-H596 showed a relative viability of 0.612. In the case of LK-2, the relative viability was 0.405. In the case of NCI-H2087, the relative viability was 0.691. NCI-H1648 gave a relative viability of 0.526. Work on SK-MES-1 yielded a relative viability of 0.893. Work on H3255 yielded a relative viability of 0.84. Cell Line COR-L23 has a relative viability of 0.407. For COR-L 105, the relative viability was 0.902. LOU-NH91 showed a relative viability of 0.856. ChaGo-K-1 gave a relative viability of 0.682. For NCI-H2170, the relative viability was 0.859. NCI-H2405 was tested, and the relative viability was 0.856. Work on HOP-62 yielded a relative viability of 0.628. Work on HCC-44 yielded a relative viability of 1.23. Cell Line NCI-H522 has a relative viability of 0.874. Cell Line BEN has a relative viability of 0.592. HCC-78 gave a relative viability of 0.597.

Same assay, conditions: first compound 8 µM
Cell Line NCI-H2342 has a relative viability of 0.83. For NCI-H727, the relative viability was 1.3. For NCI-H1650, the relative viability was 0.457. NCI-H1993 was tested, and the relative viability was 0.977. SK-LU-1 gave a relative viability of 0.588. For NCI-H838, the relative viability was 0.787. Work on LCLC-103H yielded a relative viability of 0.735. NCI-H520 was tested, and the relative viability was 0.781. Cell Line NCI-H2126 has a relative viability of 0.757. Work on EMC-BAC-2 yielded a relative viability of 0.722. NCI-H2085 showed a relative viability of 0.823. HCC-366 showed a relative viability of 0.377. Work on NCI-H1666 yielded a relative viability of 1.12. NCI-H596 was tested, and the relative viability was 0.521. LK-2 was tested, and the relative viability was 0.392. Cell Line NCI-H2087 has a relative viability of 0.913. NCI-H1648 gave a relative viability of 0.573. Cell Line SK-MES-1 has a relative viability of 0.995. H3255 gave a relative viability of 0.923. With COR-L23 the relative viability was 0.377. COR-L 105 was tested, and the relative viability was 0.89. IA-LM was tested, and the relative viability was 1.17. With LOU-NH91 the relative viability was 0.908. Work on ChaGo-K-1 yielded a relative viability of 0.775. For NCI-H2170, the relative viability was 0.823. Cell Line NCI-H2405 has a relative viability of 0.863. In the case of HOP-62, the relative viability was 0.732. Cell Line HCC-44 has a relative viability of 1.14. Cell Line NCI-H522 has a relative viability of 0.818. LU99A was tested, and the relative viability was 0.504. Work on BEN yielded a relative viability of 0.591. For HCC-78, the relative viability was 0.508.

Each cell line was assayed with Cn1c(=O)n(-c2ccc(C(C)(C)C#N)cc2)c2c3cc(-c4cnc5ccccc5c4)ccc3ncc21 [Dactolisib] + Cc1cc(Nc2cc(N3CCN(C)CC3)nc(Sc3ccc(NC(=O)C4CC4)cc3)n2)n[nH]1 [Tozasertib] (partner 0.1 µM) in the same assay as above. Details: first compound 0.002 µM.
In short: as §1
For NCI-H2342, the relative viability was 0.475. With NCI-H1623 the relative viability was 0.396. With NCI-H727 the relative viability was 0.585. In the case of NCI-H1650, the relative viability was 0.397. In the case of NCI-H1993, the relative viability was 0.584.
